Laboratory results taken from paper PMC4038586, “Venus Kinase Receptors Control Reproduction in the Platyhelminth Parasite Schistosoma mansoni” (PLoS Pathogens, 2014).

target: T1, SmVKR1 (Schistosoma mansoni, UniProt Q8WSM2); test: GVBD competition assay in receptor-expressing Xenopus oocytes; assay type: cell-based; conditions: competitive antagonist; 10-fold excess over L-Arg; inactive as agonist
T1 construct: full-length, pcDNA3.1-V5/His (V5 or Myc tag), cRNA-injected Xenopus laevis oocytes; about 150 kDa; active as homodimer
T1 sequence (Q8WSM2 24-1559): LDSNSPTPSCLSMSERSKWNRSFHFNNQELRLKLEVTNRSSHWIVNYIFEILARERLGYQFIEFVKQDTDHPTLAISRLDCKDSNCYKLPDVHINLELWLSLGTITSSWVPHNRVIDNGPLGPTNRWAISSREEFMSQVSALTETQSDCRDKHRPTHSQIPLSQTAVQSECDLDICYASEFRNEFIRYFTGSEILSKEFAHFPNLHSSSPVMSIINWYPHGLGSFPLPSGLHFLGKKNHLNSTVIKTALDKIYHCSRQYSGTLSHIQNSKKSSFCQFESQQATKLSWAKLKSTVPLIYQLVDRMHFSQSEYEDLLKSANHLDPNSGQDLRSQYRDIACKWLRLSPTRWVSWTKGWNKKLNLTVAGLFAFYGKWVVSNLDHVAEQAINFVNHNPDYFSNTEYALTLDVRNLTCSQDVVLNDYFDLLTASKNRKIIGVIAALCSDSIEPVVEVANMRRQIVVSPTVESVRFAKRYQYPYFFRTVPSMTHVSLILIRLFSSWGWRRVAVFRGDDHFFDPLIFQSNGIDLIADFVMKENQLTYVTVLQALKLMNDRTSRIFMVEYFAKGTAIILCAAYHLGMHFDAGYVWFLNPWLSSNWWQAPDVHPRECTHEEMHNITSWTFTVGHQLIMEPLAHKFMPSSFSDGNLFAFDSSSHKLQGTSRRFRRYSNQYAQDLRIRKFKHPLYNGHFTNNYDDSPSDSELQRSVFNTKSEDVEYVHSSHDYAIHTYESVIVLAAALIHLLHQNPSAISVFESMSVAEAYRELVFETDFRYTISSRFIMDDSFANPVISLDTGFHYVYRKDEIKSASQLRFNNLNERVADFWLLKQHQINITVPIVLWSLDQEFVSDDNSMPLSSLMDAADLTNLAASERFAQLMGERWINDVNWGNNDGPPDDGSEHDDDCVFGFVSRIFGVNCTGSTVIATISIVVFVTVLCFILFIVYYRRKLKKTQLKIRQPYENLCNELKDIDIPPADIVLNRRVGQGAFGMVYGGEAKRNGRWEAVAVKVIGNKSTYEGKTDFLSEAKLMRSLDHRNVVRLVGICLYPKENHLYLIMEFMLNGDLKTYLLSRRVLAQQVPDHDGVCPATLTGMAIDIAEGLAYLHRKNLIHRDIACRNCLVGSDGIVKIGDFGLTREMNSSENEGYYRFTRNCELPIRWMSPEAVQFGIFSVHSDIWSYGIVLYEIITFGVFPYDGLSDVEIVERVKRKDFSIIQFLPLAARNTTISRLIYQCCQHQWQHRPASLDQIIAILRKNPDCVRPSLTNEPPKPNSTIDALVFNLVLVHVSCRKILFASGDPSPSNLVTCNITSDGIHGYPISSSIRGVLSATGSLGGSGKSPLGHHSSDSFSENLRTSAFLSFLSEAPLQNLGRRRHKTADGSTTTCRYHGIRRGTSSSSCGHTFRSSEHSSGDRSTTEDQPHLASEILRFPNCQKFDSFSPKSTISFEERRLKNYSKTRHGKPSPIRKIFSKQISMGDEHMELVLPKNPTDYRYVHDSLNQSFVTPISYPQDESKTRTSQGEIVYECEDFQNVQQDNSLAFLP

Row | Structure (SMILES) | GVBD competition assay in receptor-expressing Xenopus oocytes
1 | CN(CC(=O)O)C(=N)N [creatine] | compete and to block totally the inducing effect of L-Arg
2 | N=C(N)NCCC[C@@H](N)C(=O)O [D-Arg] | compete and to block totally the inducing effect of L-Arg
3 | NCCC[C@H](N)C(=O)O [ornithine] | compete and to block totally the inducing effect of L-Arg
4 | N=C(N)NCCCCN [agmatine] | compete and to block totally the inducing effect of L-Arg
5 | N=C(N)NOCC[C@H](N)C(=O)O [Canavanine] | compete and to block totally the inducing effect of L-Arg

target: T1, SmVKR1; test: GVBD assay in receptor-expressing Xenopus oocytes; assay type: cell-based; conditions: agonist

Row | Structure (SMILES) | GVBD at 1 mM
6 | C[C@H](N)C(=O)O [Ala] | (Arg, Ser, Gly, Ala, Cys, Thr and Glu) had the potential to activate SmVKR1
7 | NCC(=O)O [Gly] | (Arg, Ser, Gly, Ala, Cys, Thr and Glu) had the potential to activate SmVKR1
8 | C[C@@H](O)[C@H](N)C(=O)O [Thr] | (Arg, Ser, Gly, Ala, Cys, Thr and Glu) had the potential to activate SmVKR1
9 | N[C@@H](CO)C(=O)O [Ser] | (Arg, Ser, Gly, Ala, Cys, Thr and Glu) had the potential to activate SmVKR1
10 | N[C@@H](CS)C(=O)O [Cys] | (Arg, Ser, Gly, Ala, Cys, Thr and Glu) had the potential to activate SmVKR1
11 | N[C@@H](CCC(=O)O)C(=O)O [Glu] | (Arg, Ser, Gly, Ala, Cys, Thr and Glu) had the potential to activate SmVKR1

target: T2, SmVKR2 (Schistosoma mansoni, UniProt D5JEH1); test: GVBD assay in receptor-expressing Xenopus oocytes; receptor autophosphorylation by Western blot; assay type: cell-based; conditions: agonist; ND96 medium without Ca2+; VFT domain
T2 construct: full-length, pcDNA3.1-V5/His (V5 or Myc tag), cRNA-injected Xenopus laevis oocytes; about 170 kDa; active as homodimer
T2 sequence (D5JEH1 21-1641): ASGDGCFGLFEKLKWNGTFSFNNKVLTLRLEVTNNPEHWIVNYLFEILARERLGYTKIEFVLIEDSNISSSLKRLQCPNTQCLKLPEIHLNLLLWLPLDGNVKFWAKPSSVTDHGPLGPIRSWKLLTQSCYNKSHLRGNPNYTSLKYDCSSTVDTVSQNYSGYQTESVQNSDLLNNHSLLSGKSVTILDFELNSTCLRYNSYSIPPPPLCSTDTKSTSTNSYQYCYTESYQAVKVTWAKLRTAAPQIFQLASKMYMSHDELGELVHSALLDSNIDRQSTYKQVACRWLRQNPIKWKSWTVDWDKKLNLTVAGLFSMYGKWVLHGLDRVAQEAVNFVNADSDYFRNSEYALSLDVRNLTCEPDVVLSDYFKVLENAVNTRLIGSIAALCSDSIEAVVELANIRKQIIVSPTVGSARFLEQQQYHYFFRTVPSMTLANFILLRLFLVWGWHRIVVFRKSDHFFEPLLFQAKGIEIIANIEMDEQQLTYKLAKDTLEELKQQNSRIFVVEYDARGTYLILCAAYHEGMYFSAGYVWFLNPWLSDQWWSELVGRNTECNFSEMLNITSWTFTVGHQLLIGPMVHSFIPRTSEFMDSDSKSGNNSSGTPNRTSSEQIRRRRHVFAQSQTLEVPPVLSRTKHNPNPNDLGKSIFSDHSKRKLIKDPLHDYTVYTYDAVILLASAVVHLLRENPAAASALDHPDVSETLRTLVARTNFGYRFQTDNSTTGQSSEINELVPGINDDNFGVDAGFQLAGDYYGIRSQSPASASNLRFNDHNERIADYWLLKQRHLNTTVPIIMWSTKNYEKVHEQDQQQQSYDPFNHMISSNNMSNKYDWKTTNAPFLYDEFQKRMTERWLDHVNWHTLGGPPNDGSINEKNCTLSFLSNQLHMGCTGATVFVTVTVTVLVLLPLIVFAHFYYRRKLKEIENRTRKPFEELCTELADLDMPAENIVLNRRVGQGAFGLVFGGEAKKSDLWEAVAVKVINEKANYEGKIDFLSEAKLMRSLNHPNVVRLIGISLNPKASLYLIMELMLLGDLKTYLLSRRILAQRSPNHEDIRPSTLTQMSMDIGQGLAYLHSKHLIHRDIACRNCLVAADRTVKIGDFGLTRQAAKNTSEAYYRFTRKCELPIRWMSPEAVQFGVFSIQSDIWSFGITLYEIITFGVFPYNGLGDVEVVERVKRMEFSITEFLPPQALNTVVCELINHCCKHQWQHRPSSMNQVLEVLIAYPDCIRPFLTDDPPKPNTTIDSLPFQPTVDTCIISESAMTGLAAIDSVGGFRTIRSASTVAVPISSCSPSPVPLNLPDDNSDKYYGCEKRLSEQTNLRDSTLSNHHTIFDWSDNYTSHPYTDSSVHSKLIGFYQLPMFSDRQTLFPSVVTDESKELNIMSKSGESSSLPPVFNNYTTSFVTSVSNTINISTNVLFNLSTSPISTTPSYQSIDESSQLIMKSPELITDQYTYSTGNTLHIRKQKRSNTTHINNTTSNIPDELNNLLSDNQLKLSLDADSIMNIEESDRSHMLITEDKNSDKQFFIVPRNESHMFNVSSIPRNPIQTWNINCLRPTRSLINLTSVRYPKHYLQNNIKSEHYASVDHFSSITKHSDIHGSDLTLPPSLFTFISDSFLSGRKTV

Row | Structure (SMILES) | minimal concentration
12 | N=C(N)NCCC[C@H](N)C(=O)O [L-Arg] | 1 mM

target: T1, SmVKR1; test: as above; assay type: cell-based; conditions: agonist; ND96 medium, 19 °C, 15 h; VFT domain; activation independent of Ca2+

Row | Structure (SMILES) | % GVBD at 1 μM
13 | N=C(N)NCCC[C@H](N)C(=O)O [L-Arg] | 80%
